Experimental data from the NIST ThermoML archive (doi:10.1021/je050514j).
Numbers after ± are expanded uncertainties.

Assay: xn = mol fraction of the nth substance listed
Conditions: 313.15 K, Fluid (supercritical or subcritical phases)

With `CCOC(C)=O` [ethyl acetate] + O=C=O the mass density (1000 kPa, x2 = 0) was 876.9 ± 0.4 kg/m3, the mass density (1000 kPa, x2 = 0.1) was 880.2 ± 0.4 kg/m3 and the mass density (2000 kPa, x2 = 0) was 878 ± 0.4 kg/m3. The mass density (2000 kPa, x2 = 0.1) was 881.4 ± 0.4 kg/m3, the mass density (2000 kPa, x2 = 0.2) was 884.1 ± 0.4 kg/m3 and the mass density (2000 kPa, x2 = 0.3) was 886.2 ± 0.4 kg/m3. The mass density (3000 kPa, x2 = 0) was 878.9 ± 0.4 kg/m3, the mass density (3000 kPa, x2 = 0.1) was 882.5 ± 0.4 kg/m3 and the mass density (3000 kPa, x2 = 0.2) was 885.4 ± 0.4 kg/m3. It also gave a mass density (3000 kPa, x2 = 0.3) of 887.6 ± 0.4 kg/m3, a mass density (3000 kPa, x2 = 0.4) of 888.8 ± 0.4 kg/m3 and a mass density (4000 kPa, x2 = 0) of 880 ± 0.4 kg/m3. The mass density (4000 kPa, x2 = 0.1) was 883.7 ± 0.4 kg/m3, the mass density (4000 kPa, x2 = 0.2) was 886.7 ± 0.4 kg/m3 and the mass density (4000 kPa, x2 = 0.3) was 889.1 ± 0.4 kg/m3. It also gave a mass density (4000 kPa, x2 = 0.4) of 890.6 ± 0.4 kg/m3, a mass density (4000 kPa, x2 = 0.5) of 889.9 ± 0.4 kg/m3 and a mass density (5000 kPa, x2 = 0) of 881 ± 0.4 kg/m3. The mass density (5000 kPa, x2 = 0.1) was 884.7 ± 0.4 kg/m3, the mass density (5000 kPa, x2 = 0.2) was 887.9 ± 0.4 kg/m3 and the mass density (5000 kPa, x2 = 0.3) was 890.5 ± 0.4 kg/m3. It also gave a mass density (5000 kPa, x2 = 0.4) of 892.2 ± 0.4 kg/m3, a mass density (5000 kPa, x2 = 0.5) of 891.9 ± 0.4 kg/m3 and a mass density (6000 kPa, x2 = 0) of 881.9 ± 0.4 kg/m3. For the same compound, the mass density (6000 kPa, x2 = 0.1) was 885.9 ± 0.4 kg/m3, the mass density (6000 kPa, x2 = 0.2) was 889.2 ± 0.4 kg/m3 and the mass density (6000 kPa, x2 = 0.3) was 891.9 ± 0.4 kg/m3. The mass density (6000 kPa, x2 = 0.4) was 893.9 ± 0.4 kg/m3, the mass density (6000 kPa, x2 = 0.5) was 893.9 ± 0.4 kg/m3 and the mass density (6000 kPa, x2 = 0.6) was 890.1 ± 0.4 kg/m3. It also gave a mass density (6000 kPa, x2 = 0.7) of 879.2 ± 1.6 kg/m3, a mass density (7000 kPa, x2 = 0) of 882.9 ± 0.5 kg/m3 and a mass density (7000 kPa, x2 = 0.1) of 887 ± 0.4 kg/m3. The mass density (7000 kPa, x2 = 0.2) was 890.4 ± 0.4 kg/m3, the mass density (7000 kPa, x2 = 0.3) was 893.3 ± 0.4 kg/m3 and the mass density (7000 kPa, x2 = 0.4) was 895.4 ± 0.4 kg/m3. The mass density (7000 kPa, x2 = 0.5) was 895.8 ± 0.4 kg/m3, the mass density (7000 kPa, x2 = 0.6) was 892.6 ± 0.4 kg/m3 and the mass density (7000 kPa, x2 = 0.7) was 882.7 ± 0.5 kg/m3. It also gave a mass density (7000 kPa, x2 = 0.8) of 858.2 ± 2.2 kg/m3, a mass density (8000 kPa, x2 = 0) of 883.9 ± 0.5 kg/m3 and a mass density (8000 kPa, x2 = 0.1) of 888 ± 0.5 kg/m3. For the same compound, the mass density (8000 kPa, x2 = 0.2) was 891.6 ± 0.4 kg/m3, the mass density (8000 kPa, x2 = 0.3) was 894.6 ± 0.4 kg/m3 and the mass density (8000 kPa, x2 = 0.4) was 897 ± 0.4 kg/m3. For the same compound, the mass density (8000 kPa, x2 = 0.5) was 897.7 ± 0.4 kg/m3, the mass density (8000 kPa, x2 = 0.6) was 895 ± 0.4 kg/m3 and the mass density (8000 kPa, x2 = 0.7) was 886.2 ± 0.5 kg/m3. The mass density (8000 kPa, x2 = 0.8) was 863.7 ± 0.5 kg/m3, the mass density (8000 kPa, x2 = 0.9) was 800.6 ± 3.1 kg/m3 and the mass density (9000 kPa, x2 = 0) was 884.9 ± 0.5 kg/m3. It also gave a mass density (9000 kPa, x2 = 0.1) of 889.1 ± 0.5 kg/m3, a mass density (9000 kPa, x2 = 0.2) of 892.7 ± 0.5 kg/m3 and a mass density (9000 kPa, x2 = 0.3) of 896 ± 0.5 kg/m3. The mass density (9000 kPa, x2 = 0.4) was 898.6 ± 0.4 kg/m3, the mass density (9000 kPa, x2 = 0.5) was 899.6 ± 0.4 kg/m3 and the mass density (9000 kPa, x2 = 0.6) was 897.4 ± 0.5 kg/m3. The mass density (9000 kPa, x2 = 0.7) was 889.4 ± 0.5 kg/m3, the mass density (9000 kPa, x2 = 0.8) was 869 ± 0.5 kg/m3 and the mass density (9000 kPa, x2 = 0.9) was 813 ± 0.7 kg/m3. The mass density (9000 kPa, x2 = 0.95) was 745.6 ± 2 kg/m3, the mass density (10000 kPa, x2 = 0) was 885.9 ± 0.5 kg/m3 and the mass density (10000 kPa, x2 = 0.1) was 890.1 ± 0.5 kg/m3. For the same compound, the mass density (10000 kPa, x2 = 0.2) was 893.9 ± 0.5 kg/m3, the mass density (10000 kPa, x2 = 0.3) was 897.2 ± 0.5 kg/m3 and the mass density (10000 kPa, x2 = 0.4) was 900 ± 0.5 kg/m3. For the same compound, the mass density (10000 kPa, x2 = 0.5) was 901.4 ± 0.5 kg/m3, the mass density (10000 kPa, x2 = 0.6) was 899.7 ± 0.5 kg/m3 and the mass density (10000 kPa, x2 = 0.7) was 892.5 ± 0.5 kg/m3. For the same compound, the mass density (10000 kPa, x2 = 0.8) was 873.9 ± 0.5 kg/m3, the mass density (10000 kPa, x2 = 0.9) was 823.7 ± 0.7 kg/m3 and the mass density (10000 kPa, x2 = 0.95) was 767.4 ± 0.9 kg/m3.
